Measurements published in PubChem BioAssay AID844 (SRMLSC, 2007).
Calls of active or inactive are those of the source. No rule for the calls is given here.

Columns and labels:
[1] = viability protection against doxorubicin, MRP-1 line – cell-based, doxorubicin EC50 shift, dose response (AID 844); settings: MRP1 cells, doxorubicin viability shift, 10 uM compound; at 100 µM (top of the series);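 as to viability: plate controls were cells with vehicle for no effect and cells with cytotoxic drug for full effect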
[2] = tested on: MRP1 cells, doxorubicin viability shift, 10 uM compound; test: as above; settings: for EC50: measured here: doxorubicin EC50 with compound

Row | SMILES | viability [1] | EC50 [2] [µM] | fold increase in Dox EC50 [2]
1 | COc1cc(C2Nc3cccc4cccc(c34)N2)cc(OC)c1O | 1.31% (inactive) | < 0.195 | –
2 | NC1C2CN(c3nc4c(cc3F)c(=O)c(C(=O)O)cn4-c3ccc(F)cc3F)CC12 (centres undefined) | 17.6% (inactive) | < 0.195 | –
3 | NS(=O)(=O)c1ccc(N=Nc2c(-c3ccccc3)[nH]n(-c3nc(-c4ccccc4)cs3)c2=O)cc1 | 8.13% (inactive) | < 0.195 | –
4 | COc1cccc(/C=N/NC(=O)c2cc(-c3cccn3C)n[nH]2)c1O | 9.49% (inactive) | < 0.195 | –
5 | N=C(N)SCc1ccc(Cl)cc1Cl | 10.9% (inactive) | < 0.195 | –
6 | Cc1cc(N/N=C/c2ccc(O)cc2O)nc(-n2nc(C)cc2C)n1 | 15.5% (inactive) | < 0.195 | –
7 | Oc1ccc(-c2nc(-c3ccc(O)c(O)c3)cs2)cc1 | 1.94% (inactive) | < 0.195 | –
8 | CCOC(=O)c1c(CSC(=N)N)n(-c2ccc(C)cc2)c2cc(Br)c(OC(C)=O)cc12 | 0.37% (inactive) | < 0.195 | –
9 | O=C(NCCC1=CCCCC1)C1CCN(S(=O)(=O)c2cccc3cccnc23)CC1 | – | 2.31 | 0.43 (inactive)
10 | Cc1cc(C)nc(NN2C(=O)/C(=C/c3ccccc3)SC2=S)n1 | – | 8.42 | 1.56
11 | Cc1[nH]c2ccccc2c1C(=O)C(=O)NCCC1=CCCCC1 | – | 5.3 | 0.98 (inactive)
12 | COC(=O)CCc1c(C)[nH]c(C(=O)OCc2ccccc2)c1C | – | 4.57 | 0.85 (inactive)
13 | Cc1ccc(/C=C2\SC(=S)N(c3c(C)n(C)n(-c4ccccc4)c3=O)C2=O)cc1 | – | 5.23 | 0.97 (inactive)
14 | N#Cc1c(-c2ccco2)nc(SCC(=O)Nc2cccc(Cl)c2)[nH]c1=O | – | 7.17 | 1.33 (inactive)
15 | N#Cc1nc(COc2ccccc2)oc1N1CCCCCC1 | – | 3.17 | 0.59 (inactive)
16 | O=C(Nc1nc(COc2ccccc2)cs1)c1ccccc1F | – | 9.49 | 1.76
17 | C=CCN(C(=O)Nc1ccc(Cl)cc1)C1CC(=O)N(c2ccc(OC)cc2)C1=O (centres undefined) | – | 4.85 | 0.9 (inactive)
18 | Cc1noc(/C=C/N(C)C)c1S(=O)(=O)N1CCCC(C(=O)NC2CCCCC2)C1 (centres undefined) | – | 5.23 | 0.97 (inactive)
19 | CN(Cc1ccccc1)c1oc(COc2ccccc2F)nc1C#N | – | 3.56 | 0.66 (inactive)
20 | CCCOC(=S)NC(=O)c1sc2ccccc2c1Cl | – | 6.75 | 1.25 (inactive)
21 | CCC(Oc1ccccc1)C(=O)Nc1nnc(C(F)(F)F)s1 (centres undefined) | – | 9.1 | 1.69
22 | COc1ccc(-n2ncc3c(N4CCCc5ccccc54)ncnc32)cc1 | – | 3.62 | 0.67 (inactive)
23 | Cc1ccc(-c2cc(-c3ccccc3)no2)c(O)c1 | – | 3.2 | 0.59 (inactive)
24 | COc1ccc(NS(=O)(=O)c2cc(NC(=O)CNC(=O)c3ccc(C)s3)ccc2Cl)cc1 | – | 7.78 | 1.44 (inactive)

Row | SMILES | viability [1] | EC50 [2] [µM] | fold increase in Dox EC50 [2]
25 | c1ccc(C(c2ccccc2)N2CCN(c3nc4ccccc4n4cnnc34)CC2)cc1 | – | 4.39 | 0.81 (inactive)
26 | Cc1nc(C)c(C(=O)NNS(=O)(=O)c2ccccc2)s1 | – | 4.48 | 0.83 (inactive)
27 | Cc1nc(=O)c(-c2ccccc2)c(C)n1-c1ccc(C(=O)O)cc1 | – | 7.02 | 1.3 (inactive)
28 | O=[N+]([O-])c1ccc(O)c(/C=N/n2cnc3ccccc32)c1 | – | 3.61 | 0.67 (inactive)
29 | O=C(COc1ccc(Br)cc1)c1ccc2c(c1)CCCC2 | – | 6.29 | 1.17 (inactive)
30 | C[C@]12C=CC(=O)C=C1CC[C@H]1[C@@H]3C[C@@H](O)[C@](O)(C(=O)CO)[C@@]3(C)C[C@H](O)[C@@]12F | – | 7.62 | 1.41 (inactive)
31 | COc1ccc(NC(=O)c2oc3ccccc3c2NC(=O)C(C)(C)C)cc1 | – | 3.41 | 0.63 (inactive)
32 | CCCCCCCC1CC(CSc2ncn[nH]2)OC1=O (centres undefined) | – | 5.08 | 0.94 (inactive)
33 | O=C(/C=C/c1ccc([N+](=O)[O-])cc1)N1CCN(c2ccccc2F)CC1 | – | 3.05 | 0.56 (inactive)
34 | Cc1cccc(N2CCN(C(=O)c3cc4c(=O)n(C)c5ccccc5c4n3C)CC2)c1C | – | 0.44 | 0.08 (inactive)
35 | Cc1ccc(COc2cccc3c2CCN(Cc2ccc(F)cc2)C3=O)cc1 | – | 5.52 | 1.02 (inactive)
36 | Cc1ccc(S(=O)(=O)N2CCC(C(=O)N[C@@H](C)C(=O)NC3CCCCC3)CC2)cc1 | – | 4.73 | 0.88 (inactive)
37 | Cc1nnc2sc(-c3ccncc3)nn12 | – | 4.31 | 0.8 (inactive)
38 | CC(C)Cn1c2c(c(O)c(C(=O)Nc3nccs3)c1=O)CCCC2 | – | 4.48 | 0.83 (inactive)
39 | O=C(NC1CCCC1)C(c1c[nH]c2ccccc12)N(C(=O)Cn1nnc(-c2ccc(Cl)cc2)n1)c1ccccc1 (centres undefined) | – | 5.35 | 0.99 (inactive)
40 | COC(=O)N/N=C/c1ccc(-c2ccc(C)c(Cl)c2)o1 | – | 3.41 | 0.63 (inactive)
41 | c1ccc2c(-c3nc(C4CCCCC4)no3)cc(-c3ccncc3)nc2c1 | – | 3.32 | 0.62 (inactive)
42 | Cc1ccc2nc(/N=C(\N)NC(=O)N3c4ccccc4Sc4ccccc43)nc(C)c2c1 | – | 10.5 | 1.94
43 | Cc1cc2nc(/N=C(\N)NC(=O)N3c4ccccc4Sc4ccccc43)nc(C)c2cc1C | – | 9.15 | 1.69
44 | CCCCOc1ccc(/C=C/C(=O)Nc2ccc([N+](=O)[O-])cc2C)cc1 | – | 6.3 | 1.17 (inactive)
45 | O=C(CC1SC(=O)N(c2ccccc2)C1=O)Nc1ccccc1 (centres undefined) | – | 6.42 | 1.19 (inactive)
46 | CCOC(=O)Cc1csc(NC(=O)c2c(-c3ccccc3)noc2C)n1 | – | 2.4 | 0.44 (inactive)
47 | O=C1CCCC(O)=C1N=Nc1ccc2c(c1)OCO2 | – | 6.29 | 1.17 (inactive)
